Laboratory results published in patent US20190054054A1, “Methods reducing or preventing oxidation of high density lipoprotein (HDL)” (Amarin Pharmaceuticals Ireland Limited, priority 2017, published 2019).

How the values were obtained:
[1] = Membrane cholesterol domain peak intensity, x-ray diffraction of POPC/cholesterol membranes (Example 9); details: 1.5:1 C/P mole ratio; for % change Vs control / Relative Cholesterol Domain Preak Intensity: drug-to-phospholipid mole ratio 1:30; for Relative Cholesterol Domain Preak Intensity: POPC and cholesterol
Protocol: The fatty acid stock solutions were stored at −20° C. until use. […] Samples were shell-dried under nitrogen gas and placed under vacuum for 3 hours to remove residual solvent at room temperature. After desiccation, each sample was resuspended in saline buffer (0.5 mM HEPES, 154 mM NaCl, pH 7.3) to yield a final phospholipid concentration of 2.5 mg/mL. Lipid suspensions were then vortexed for 3 minutes at ambient temperature to form MLVs. Membrane lipid vesicles were oriented for x-ray diffraction analysis as described by others (e.g., Herbette et al., Biophys. […] Briefly, a 100 μL aliquot of each MLV preparation (containing 250 μg MLV) was transferred to a Lucite® sedimentation cell fitted with an aluminum foil substrate designed to collect MLVs into a single membrane pellet upon centrifugation. […] After centrifugal orientation, sample supernatants were aspirated and aluminum foil substrates, each supporting a single membrane pellet, were removed from the sedimentation cells. Sample pellets were dried for 5-10 minutes at ambient conditions, mounted onto curved glass supports, and placed in hermetically-sealed, brass or glass containers (for immediate analysis or temporary storage, respectively). All x-ray diffraction experiments were conducted at 20° C., 74% relative humidity. The latter was established by exposing membrane samples to saturated solutions of L-(+)-tartaric acid (K2C4H4O6.½H2O) for at least 1 hour prior to experimental analysis. Oriented membrane samples were aligned at grazing incidence with respect to a collimated, mono-chromatic CuKα x-ray beam (Kα1 and Kα2 unresolved; λ=1.54 Å) produced by a Rigaku Rotaflex RU-200, high-brilliance microfocus generator (Rigaku-MSC, The Woodlands, Tex.) as previously described (Mason et al., Biophys. J., vol. 55(4), pages 769-778 (1989)). The samples were initially subjected to x-ray diffraction analysis at least 12 hours after formation of the membrane pellets and retested for up to several days. Analytical x-rays were generated by electron bombardment of a rotating copper anode and are filtered through a thin nickel foil to provide monochromatic radiation (λ=1.54 Å). Collimation of the x-ray beam was achieved using a single Franks mirror. Diffraction data were collected on a one-dimensional, position-sensitive electron detector (Hecus X-ray Systems, Graz, Austria) at a sample-to-detector distance of 150 mm from the sample site. The d-space for any given membrane multi bilayer is a measurement of the unit cell periodicity of the membrane lipid bilayer (e.g., the distance from the center of one lipid bilayer to the next including surface hydration), and is calculated from Bragg's Law, h λ=2 d sin θ, where h is the diffraction order, λ is the wavelength of the x-ray radiation (1.54 Å), d is the membrane lipid bilayer unit cell periodicity, and θ is the Bragg angle equal to one-half the angle between the incident beam and scattered beam. […] Routines written in Origin 8.6 (OriginLab Corporation, Northampton, Mass.) were used to determine total peak area (associated with all diffraction peaks in a given pattern) against which the second-order cholesterol domain peak was normalized. The raw data collected in this study was normalized using internal. Data were presented as mean+S.E.M. for (N) separate samples or treatment groups. Differences between groups were analyzed using the two-tailed, Student's t-test (for comparisons between only two groups) or ANOVA followed by Dunnett or Student-Newman-Keuls multiple comparisons post-hoc analysis (for comparisons between three or more groups). Alpha error was set to 0.05 in this study.

[2] = tested on: sdLDL isolated from human subjects under conditions of hyperglycemia; assay: Glucose-induced sdLDL oxidation, MDA/TBARS (Example 10); type: biochemical; details: 200 mg/dL glucose; for effect on glucose-induced sdLDL oxidation: 10.0 μM
Protocol: Vitamin E (α-tocopherol) purchased from Sigma-Aldrich was prepared in ethanol at 1.0 mM (E=[…] at 294 nm) prior to experimental use. Test compounds were further diluted in ethanol or aqueous buffer as needed. Phosphate Buffered Saline (PBS) purchased from Sigma-Aldrich was prepared in double distilled water at 10 mM (138 mM NaCl, 2.7 mM KCl, pH 7.4). […] Lipid oxidation was measured by the colorimetric detection of malondialdehyde (MDA), a marker of oxidative stress. Data were presented as mean±SD for (n) separate samples or experiments. Differences between groups were analyzed using the unpaired, two-tailed Student's t-test (for comparisons between only two groups) or ANOVA followed by Student-Newman-Keuls multiple comparisons post hoc analysis (for comparisons between three or more groups).

HUVECs = assay: NO release from HUVECs incubated with agent-treated oxidized sdLDL (Example 12); type: cell-based, human; details: for reduction of NO release as compared to vehicle-treated, oxidized sdLDL: oxidized sdLDL pretreated with agent at 10.0 μM
Protocol: All samples, with the exception of non-oxidized sdLDL controls, were subjected to copper-induced oxidation for 1 hour. Human umbilical vein endothelial cells (HUVECs) were incubated with the various sdLDL samples, stimulated with calcium, and monitored for nitric oxide (NO) and peroxynitrite (ONOO^−) release using nanosensor technology.

[3] = EPA to phospholipid mole ratio 1:60
[4] = EPA to phospholipid mole ratio 1:90

CC/C=C\C/C=C\C/C=C\C/C=C\C/C=C\CCCC(=O)O [EPA, cis-5,8,11,14,17-eicosapentaenoic acid]
reduction in cholesterol domain peaks as compared to vehicle treatment ([1]; 1:30): 65% | % Change (vs. Control) [1, 3]: −30.2 ± 27.9% | Relative Cholesterol Domain Peak Intensity [1, 3]: 29.5 ± 10.9 | % Change (vs. Control) [1, 4]: −15.0 ± 12.6% | Relative Cholesterol Domain Peak Intensity [1, 4]: 36.0 ± 3.1 | % change Vs control [1]: −65.5 ± 17.1% | Relative Cholesterol Domain Preak Intensity [1]: 14.6±5 | IC50 ([2]; read-out: IC50, inhibition of glucose-induced sdLDL oxidation): < 1000 nM | inhibition of sdLDL oxidation as compared to vehicle controls ([2]; highest concentration tested): 94% | sdLDL oxidation (formation of MDA) ([2]; highest concentration tested, unit of the source corrected): 0.2 ± 0.1 µM | increase in NO release as compared to non-oxidized sdLDL treatment (HUVECs; EPA-treated, oxidized sdLDL): 23% | increase in NO release as compared to oxidized LDL treatment (HUVECs; EPA-treated, oxidized sdLDL): 53% | HUVEC NO release (HUVECs; exposure to EPA-treated (10.0 μM), oxidized sdLDL): 931 ± 59 nM

Cc1ccc(C)c(OCCCC(C)(C)C(=O)O)c1 [gemfibrozil]
effect on cholesterol domains (in words) ([1]; 1:30): no significant changes in cholesterol domain size | % change Vs control [1]: 11% | % change Vs control ([1]; listed as Gemfib): 10.9 ± 43.3% | Relative Cholesterol Domain Preak Intensity [1]: 46.9±12.6 | Relative Cholesterol Domain Preak Intensity ([1]; listed as Gemfib): 46.9 ± 12.6 | effect on glucose-induced sdLDL oxidation [2]: did not inhibit glucose-induced sdLDL oxidation | reduction of NO release as compared to vehicle-treated, oxidized sdLDL (HUVECs): 33%

O=C(O)c1cccnc1 [niacin, nicotinic acid]
effect on cholesterol domains (in words) ([1]; 1:30): no significant changes in cholesterol domain size | % change Vs control [1]: −35% | % change Vs control ([1]; listed as Niacin): −35.0 ± 30.8% | Relative Cholesterol Domain Preak Intensity [1]: 27.5±12.2 | Relative Cholesterol Domain Preak Intensity ([1]; listed as Niacin): 27.5 ± 12.2 | effect on glucose-induced sdLDL oxidation [2]: did not inhibit glucose-induced sdLDL oxidation | reduction of NO release as compared to vehicle-treated, oxidized sdLDL (HUVECs): 45%

Cc1c(C)c2c(c(C)c1O)CC[C@@](C)(CCC[C@H](C)CCC[C@H](C)CCCC(C)C)O2 [vitamin E, α-tocopherol]
effect on glucose-induced sdLDL oxidation [2]: failed to inhibit sdLDL oxidation | increase in sdLDL oxidation as compared to glucose-treated controls [2]: 63%
